According to US10322097B2, “Treatment of subjects with multidrug-resistant cancer” (priority 2015, dated 2019):

How the values were obtained:
[1] = test system: HEK293/ABCB5 kidney cells; test: MTT cytotoxicity assay, HEK293/ABCB5; type: cell-based
Protocol: (§1) Cell cultures and cytotoxicity assays have been used. Celastrol was dissolved in DMSO at a final concentration of 100 mmol/L and stored at −20° C. Cytotoxicity was assessed using the 3-(4,5-dimethylthiazol-2-yl)-2,5-diphenyltetrazolium bromide assay. 4000 cells from HEK293 and HEK293/ABCB5 kidney cancer cells or MDA-MB-231 pcDNA and MDA-MB-231/BCRP breast cancer cells were seeded on 96-well plates per well. After overnight pre-incubation, the cells were exposed to different concentrations of celastrol (0.1-10 μmol/L) for 3 days. Subsequently, 10 μL of MTT reagents were added to each well and incubated at 37° C. for 4 hours followed by the addition of 100 μL solubilization buffer (10% SDS in 0.01 mol/L HCl) and overnight incubation. Absorbance at 585 nm was determined from each well the next day. The percentage of cell viability was calculated using the following formula: Cell viability (%)=Cells number treated/Cells number DMSO control×100. Data were obtained from three independent experiments.

HEK293 kidney cells = test: MTT cytotoxicity assay, HEK293; type: cell-based; conditions: Homo sapiens, HEK293, 72 h, 3 days
Protocol: as §1

[2] = test system: DLD-1 Bax-Bak-/- colon cancer cells; test: MTT cytotoxicity assay, DLD-1 Bax-Bak-/-; type: cell-based
Protocol: Cell cultures and cytotoxicity assays have been used. Celastrol was dissolved in DMSO at a final concentration of 100 mmol/L and stored at −20° C. Cytotoxicity was assessed using the 3-(4,5-dimethylthiazol-2-yl)-2,5-diphenyltetrazolium bromide assay. 4000 cells from HCT116 p53^+/+ or p53^−/− colon cancer cells and DLD-1 Bax-Bak^+/+ or Bax-Bak^−/− colon cancer cells were seeded on 96-well plates per well. […] Subsequently, 10 μL of MTT reagents were added to each well and incubated at 37° C. for 4 hours followed by the addition of 100 μL solubilization buffer (10% SDS in 0.01 mol/L HCl) and overnight incubation. […] The percentage of cell viability was calculated using the following formula: Cell viability (%)=Cells number treated/Cells number DMSO control×100. Data were obtained from three independent experiments.

[3] = test system: SGC-7901 (Gastric) cisplatin sensitive cancer cells; test: MTT cytotoxicity assay, SGC-7901 cisplatin sensitive; type: cell-based, human; conditions: Homo sapiens, SGC-7901, 72 h, read-out: IC50 SGC-7901 (Gastric) (Cisplatin sensitive)
Protocol: as §1, with “A2780 cisplatin sensitive/resistant ovarian” for “HEK293 and HEK293/ABCB5 kidney”, “SGC-7901 cisplatin sensitive/resistant gastric” for “MDA-MB-231 pcDNA and MDA-MB-231/BCRP breast”, “(0.039-100” for “(0.1-10”, “μmol/L) or cisplatin” for “μmol/L)”

[4] = test system: MCF-7 (Breast) doxorubicin resistant cancer cells; test: MTT cytotoxicity assay, MCF-7 doxorubicin resistant; type: cell-based, human
Protocol: as §1, with “MCF-7 doxorubicin sensitive/resistant breast” for “HEK293 and HEK293/ABCB5 kidney”, “CEM doxorubicin sensitive/resistant leukemia” for “MDA-MB-231 pcDNA and MDA-MB-231/BCRP breast cancer”, “(0.039-100” for “(0.1-10”, “μmol/L) or doxorubicin” for “μmol/L)”

[5] = test system: A549 taxol-resistant lung cancer cells; test: Annexin V flow cytometry analysis of cell death; type: cell-based, human; conditions: 24 h
Protocol: Annexin V flow cytometry analysis has been carried out. Cell death and viability were measured using an Annexin V staining kit (BD Biosciences, San Jose, Calif., USA).
Briefly, A549 taxol-resistant cancer cells were treated with 0.1-0.5 μM celastrol with or without 40 μM of taxol for 24 h. Cells were then harvested and analysed by multiparametric flow cytometry using FITC-Annexin V and propidium iodide staining (BD Biosciences, San Jose, Calif., USA) according to the manufacturer's instructions. Flow cytometry was then carried out using a FACSCalibur flow cytometer (BD Biosciences, San Jose, Calif., USA). Data acquisition and analysis was performed with CellQuest (BD Biosciences, San Jose, Calif., USA). Data were obtained from three independent experiments.

[6] = test system: A549 (Lung) taxol resistant cancer cells; test: MTT cytotoxicity assay, A549 taxol resistant; type: cell-based, human
Protocol: as §1, with “from A549 (lung), A2780 (ovary), HCT-8 (colon)” for “from HEK293”, “and MCF-7 (breast)” for “and HEK293/ABCB5 kidney cancer cells or MDA-MB-231 pcDNA and MDA-MB-231/BCRP breast”, “celastrol (0.039-100” for “celastrol (0.1-10”, “μmol/L) or taxol” for “μmol/L)”, “reagents was” for “reagents were”

[7] = test system: MCF-7 (Breast) taxol resistant cancer cells; test: MTT cytotoxicity assay, MCF-7 taxol resistant; type: cell-based, human
Protocol: as §1, with “from A549 (lung), A2780 (ovary), HCT-8 (colon)” for “from HEK293”, “and MCF-7 (breast)” for “and HEK293/ABCB5 kidney cancer cells or MDA-MB-231 pcDNA and MDA-MB-231/BCRP breast”, “celastrol (0.039-100” for “celastrol (0.1-10”, “μmol/L) or taxol” for “μmol/L)”, “reagents was” for “reagents were”

CC1=C(O)C(=O)C=C2C1=CC=C1[C@@]2(C)CC[C@@]2(C)[C@@H]3C[C@](C)(C(=O)O)CC[C@]3(C)CC[C@]12C [Celastrol, celastrol]
IC50 ([1]; Homo sapiens, HEK293, 72 h, MTT, 3 days): 3450 nM | Resistant Factor ([1]; IC50 HEK293/ABCB5 divided by IC50 HEK293): 1.12 | IC50 (HEK293 kidney cells): 3080 nM | IC50 ([2]; Homo sapiens, DLD-1, 72 h, read-out: IC50 DLD-1 Bax-Bak-/- colon cancer cells): 184 nM | Resistant Factor ([2]; IC50 DLD-1 Bax-Bak-/- divided by IC50 DLD-1 Bax-Bak+/+): 0.32 | IC50 [3]: 1940 nM | IC50 ([4]; Homo sapiens, MCF7, 72 h, read-out: IC50 MCF-7 (Breast) (Doxorubicin resistant)): 950 nM | Resistant Factor ([4]; MCF-7 doxorubicin resistant versus doxorubicin sensitive): 0.84 | cytotoxicity (cell death, Annexin V) ([5]; 0.1-0.5 μM celastrol alone): limited cytotoxicity | taxol-mediated cytotoxicity (cell death, Annexin V) on co-treatment ([5]; 0.1-0.5 μM celastrol with 40 μM taxol): significantly enhanced | Resistant Factor ([6]; A549 taxol resistant versus taxol sensitive): 0.42 | IC50 ([6]; Homo sapiens, A549, 72 h, read-out: IC50 A549 (Lung) (Taxol resistant)): 1000 nM | IC50 ([7]; Homo sapiens, MCF7, 72 h, read-out: IC50 MCF-7 (Breast) (Taxol resistant)): 730 nM | Resistant Factor ([7]; MCF-7 taxol resistant versus taxol sensitive): 0.65
